Source: publication PMC6199744, “Development of Chemical Proteomics for the Folateome and Analysis of the Kinetoplastid Folateome” (ACS Infectious Diseases, 2018)
Read-outs that look alike come from different tables or passages of the source.

Columns and labels:
Assay type in all cases: binding
[1] = biological target: T1, HeLa cell extract proteins (Homo sapiens, UniProt O14818)
T1 construct: endogenous in cells; host or cells: HeLa cell extract
T1 sequence (O14818 1-248): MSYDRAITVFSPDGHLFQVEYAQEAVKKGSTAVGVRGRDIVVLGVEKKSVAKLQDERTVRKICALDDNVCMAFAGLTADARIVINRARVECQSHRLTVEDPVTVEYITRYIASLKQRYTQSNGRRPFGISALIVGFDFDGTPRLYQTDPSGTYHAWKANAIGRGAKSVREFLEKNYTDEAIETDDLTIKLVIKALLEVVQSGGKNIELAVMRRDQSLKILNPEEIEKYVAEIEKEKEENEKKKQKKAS

[2] = biological target: T2, HeLa cell extract proteins (Homo sapiens, UniProt P61106)
T2 construct: endogenous in cells; host or cells: HeLa cell extract
T2 sequence (P61106 whole entry): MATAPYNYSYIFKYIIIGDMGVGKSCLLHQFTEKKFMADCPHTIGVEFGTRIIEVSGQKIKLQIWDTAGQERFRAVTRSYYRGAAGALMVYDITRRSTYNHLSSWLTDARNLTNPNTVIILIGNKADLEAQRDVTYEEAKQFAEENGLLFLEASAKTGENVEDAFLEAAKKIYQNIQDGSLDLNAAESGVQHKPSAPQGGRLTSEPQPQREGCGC

[3] = biological target: T3, HeLa cell extract proteins (Homo sapiens, UniProt P04843)
T3 construct: endogenous in cells; host or cells: HeLa cell extract
T3 sequence (P04843 24-607): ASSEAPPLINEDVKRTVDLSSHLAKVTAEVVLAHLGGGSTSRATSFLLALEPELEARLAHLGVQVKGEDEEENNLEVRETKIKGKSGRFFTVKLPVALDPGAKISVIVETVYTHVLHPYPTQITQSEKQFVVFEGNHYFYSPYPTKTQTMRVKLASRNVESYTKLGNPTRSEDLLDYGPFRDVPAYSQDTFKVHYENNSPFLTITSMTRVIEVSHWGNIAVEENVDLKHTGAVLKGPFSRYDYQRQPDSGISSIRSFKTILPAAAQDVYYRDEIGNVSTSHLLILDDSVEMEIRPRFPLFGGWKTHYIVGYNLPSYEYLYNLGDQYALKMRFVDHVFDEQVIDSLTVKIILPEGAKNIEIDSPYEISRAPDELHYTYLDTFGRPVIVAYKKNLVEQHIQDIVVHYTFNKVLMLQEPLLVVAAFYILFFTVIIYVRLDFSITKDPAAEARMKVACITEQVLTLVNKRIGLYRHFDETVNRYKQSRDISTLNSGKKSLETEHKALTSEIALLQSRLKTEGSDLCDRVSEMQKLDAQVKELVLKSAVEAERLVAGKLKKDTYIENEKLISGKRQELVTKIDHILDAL

[4] = biological target: T4, HeLa cell extract proteins (Homo sapiens, UniProt Q9Y233)
T4 construct: endogenous in cells; host or cells: HeLa cell extract
T4 sequence (Q9Y233 whole entry): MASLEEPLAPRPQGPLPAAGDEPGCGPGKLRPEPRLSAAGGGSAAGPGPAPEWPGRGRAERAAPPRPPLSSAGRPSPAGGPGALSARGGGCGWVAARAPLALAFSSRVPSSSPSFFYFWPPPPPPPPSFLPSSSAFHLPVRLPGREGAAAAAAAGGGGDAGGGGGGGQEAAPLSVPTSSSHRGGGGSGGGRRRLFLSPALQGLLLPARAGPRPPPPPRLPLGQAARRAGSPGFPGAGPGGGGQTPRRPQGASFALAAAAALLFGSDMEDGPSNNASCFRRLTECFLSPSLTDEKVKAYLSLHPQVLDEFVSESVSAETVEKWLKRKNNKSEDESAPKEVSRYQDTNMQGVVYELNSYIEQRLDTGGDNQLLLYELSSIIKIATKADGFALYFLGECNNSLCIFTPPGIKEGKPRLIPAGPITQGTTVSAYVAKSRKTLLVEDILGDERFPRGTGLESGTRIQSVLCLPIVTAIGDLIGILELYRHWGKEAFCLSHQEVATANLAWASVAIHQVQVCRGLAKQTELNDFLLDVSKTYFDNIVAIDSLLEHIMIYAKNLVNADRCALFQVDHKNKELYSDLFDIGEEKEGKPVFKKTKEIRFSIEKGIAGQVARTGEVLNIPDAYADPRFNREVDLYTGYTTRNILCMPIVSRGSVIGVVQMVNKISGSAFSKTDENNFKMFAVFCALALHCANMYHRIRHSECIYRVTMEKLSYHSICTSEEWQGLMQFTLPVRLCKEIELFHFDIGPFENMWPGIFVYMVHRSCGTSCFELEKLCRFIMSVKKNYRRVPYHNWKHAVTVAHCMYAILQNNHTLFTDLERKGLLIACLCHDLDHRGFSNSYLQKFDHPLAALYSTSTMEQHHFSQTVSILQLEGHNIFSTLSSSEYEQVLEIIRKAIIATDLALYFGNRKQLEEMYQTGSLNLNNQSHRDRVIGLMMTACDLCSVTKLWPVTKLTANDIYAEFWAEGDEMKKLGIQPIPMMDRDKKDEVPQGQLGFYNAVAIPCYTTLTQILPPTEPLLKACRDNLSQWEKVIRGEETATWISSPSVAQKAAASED

[5] = biological target: T5, HeLa cell extract proteins (Homo sapiens, UniProt O75964)
T5 construct: endogenous in cells; host or cells: HeLa cell extract
T5 sequence (O75964 1-103): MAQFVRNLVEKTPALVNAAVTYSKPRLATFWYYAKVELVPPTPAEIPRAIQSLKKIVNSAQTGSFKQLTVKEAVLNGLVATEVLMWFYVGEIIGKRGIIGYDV

[6] = biological target: T6, HeLa cell extract proteins (Homo sapiens, UniProt Q96KA5)
T6 construct: endogenous in cells; host or cells: HeLa cell extract
T6 sequence (Q96KA5 1-538): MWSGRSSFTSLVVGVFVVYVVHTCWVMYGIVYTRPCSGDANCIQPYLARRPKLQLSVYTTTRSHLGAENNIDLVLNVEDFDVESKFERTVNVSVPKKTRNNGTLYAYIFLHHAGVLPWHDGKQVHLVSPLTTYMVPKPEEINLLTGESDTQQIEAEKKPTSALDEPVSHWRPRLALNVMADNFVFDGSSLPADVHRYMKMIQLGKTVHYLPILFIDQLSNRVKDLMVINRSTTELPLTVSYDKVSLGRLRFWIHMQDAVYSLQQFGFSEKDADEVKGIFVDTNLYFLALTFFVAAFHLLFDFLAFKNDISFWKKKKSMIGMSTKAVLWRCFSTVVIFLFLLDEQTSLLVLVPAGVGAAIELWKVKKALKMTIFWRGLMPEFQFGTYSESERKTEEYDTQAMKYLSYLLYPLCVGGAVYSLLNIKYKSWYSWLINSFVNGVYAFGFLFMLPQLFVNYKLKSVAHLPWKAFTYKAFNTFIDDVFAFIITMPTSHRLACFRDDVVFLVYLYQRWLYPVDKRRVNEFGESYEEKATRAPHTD

SMILES	fold changes relative to vehicle control ([1]; protein PSMA7, HeLa)	fold changes relative to vehicle control ([2]; captured protein RAB14, HeLa)	fold changes relative to vehicle control ([3]; protein RPN1, HeLa)	fold changes relative to vehicle control ([4]; captured protein PDE10A, HeLa)	fold changes relative to vehicle control ([5]; protein ATP5L, HeLa)	fold changes relative to vehicle control ([6]; captured protein CLPTM1L, HeLa)	fold changes relative to vehicle control ([1]; HeLa, captured protein PSMA7)	fold changes relative to vehicle control ([2]; HeLa, protein RAB14)	fold changes relative to vehicle control ([3]; HeLa, protein RPN1)	fold changes relative to vehicle control ([4]; protein PDE10A, HeLa)	fold changes relative to vehicle control ([5]; HeLa, protein ATP5L)	fold changes relative to vehicle control ([6]; protein CLPTM1L, HeLa)	also measured
Nc1nc2cccc(-c3ccccc3)c2n1Cc1ccc(Cl)c(Cl)c1 [compound 3]	1.07	0.82	1.02	0.99	0.98	1.14							
CCCCCCOc1ccc(Cc2cnc(N)nc2N)cc1 [compound 1]	1.13	0.89	1.09	0.96	1.2	0.84							
NCCCNc1ccc(C(=O)NC(CCC(=O)O)C(=O)O)cc1 (stereo not drawn) [compound 7]							0.93	0.86	0.94	1	0.97	0.9	
CCCCCCOc1cccc(Cc2cnc(N)nc2N)c1 [compound 2]	1.3	1.22	1.28	0.94	0.95	1.05							
NCCOCCOCC(=O)Nc1nc2ncc(CNc3ccc(C(=O)NC(CCC(=O)O)C(=O)O)cc3)nc2c(=O)[nH]1 (stereo not drawn) [compound 6]							1.02	0.97	0.96	0.78	0.98	1.01	
Nc1nc2[nH]cc(CCc3ccc(C(=O)N[C@@H](CCC(=O)O)C(=O)O)cc3)c2c(=O)[nH]1 [PTX, pemetrexed]													fold changes relative to vehicle control [1]: 1.03; fold changes relative to vehicle control [2]: 0.95; fold changes relative to vehicle control [3]: 0.96; fold changes relative to vehicle control [4]: 0.66; fold changes relative to vehicle control [5]: 1.32; fold changes relative to vehicle control [6]: 0.91
Nc1nc2c(c(=O)[nH]1)N(C=O)C(CNc1ccc(C(=O)N[C@@H](CCC(=O)O)C(=O)O)cc1)CN2 (stereo partly drawn) [LEU, leucovorin]							1.08	0.95	0.88	1.01	1.07	0.77	
